Experimental data as given in patent US20240116985A1, “STAPLED PEPTIDES AND METHODS THEREOF” (priority 2020, published 2024).
In brackets after ≈: the same amount, converted by molar mass. Like-named read-outs stand apart in the source and are kept apart here.

Legend:
Solubility in PBS = type: physicochemical
Summary of the method: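 HPLC quantitation of peptide remaining in the PBS supernatant after ultracentrifugation, referenced to a 50 μM solution in DMSO.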

CHI Log D procedure = type: physicochemical; conditions: for CHI Log D: pH 7.4
[1] = target: T1, full-length beta-Catenin (Uniprot ID P35222) (Homo sapiens, UniProt P35222); test: Fluorescence polarization IC50 (beta-catenin / 5FAM-TCF4 10-53 competition); type: binding
T1 construct: 10 nM full-length beta-Catenin (Uniprot ID P35222)
T1 sequence (P35222 1-781): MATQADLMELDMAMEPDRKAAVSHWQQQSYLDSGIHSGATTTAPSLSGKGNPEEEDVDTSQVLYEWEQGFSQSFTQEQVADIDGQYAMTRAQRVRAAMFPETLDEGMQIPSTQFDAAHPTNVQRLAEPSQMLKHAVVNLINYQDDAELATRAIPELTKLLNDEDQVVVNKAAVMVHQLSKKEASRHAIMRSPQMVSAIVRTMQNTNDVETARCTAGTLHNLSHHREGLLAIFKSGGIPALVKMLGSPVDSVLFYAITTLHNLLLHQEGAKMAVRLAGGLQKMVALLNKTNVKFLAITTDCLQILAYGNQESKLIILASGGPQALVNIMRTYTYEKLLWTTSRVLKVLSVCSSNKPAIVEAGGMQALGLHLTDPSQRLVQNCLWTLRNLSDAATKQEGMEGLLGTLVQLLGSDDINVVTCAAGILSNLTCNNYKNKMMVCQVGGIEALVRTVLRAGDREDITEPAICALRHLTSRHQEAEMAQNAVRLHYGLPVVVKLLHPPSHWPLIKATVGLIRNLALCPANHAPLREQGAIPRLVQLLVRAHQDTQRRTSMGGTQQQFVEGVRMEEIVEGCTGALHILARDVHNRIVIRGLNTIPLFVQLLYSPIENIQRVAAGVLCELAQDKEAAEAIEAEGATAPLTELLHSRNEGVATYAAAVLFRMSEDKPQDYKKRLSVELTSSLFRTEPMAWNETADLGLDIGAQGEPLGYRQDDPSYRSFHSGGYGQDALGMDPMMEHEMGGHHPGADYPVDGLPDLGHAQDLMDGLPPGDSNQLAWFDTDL

[2] = fluorescence polarization, read-out: beta-Catenin FP IC50
[3] = fluorescence polarization, beta-catenin, read-out: FP EC50
[4] = Table E2-1, read-out: beta-Catenin FP IC50

Row | Compound | Solubility (Solubility in PBS) [µM] | chromatographic logD (CHI Log D procedure; pH 7.4, CHI Log D) | IC50 ([1]; read-out: beta-Catenin FP IC50) [nM] | CHI Log D (CHI Log D procedure) | IC50 [1, 2] [nM] | IC50 [1, 3] [nM] | other results
1 | CC(=O)N1CCC[C@]12CC=CCCCC1(CCCC=CCCCOC(=O)N3CC[C@@](C(=O)N[C@@H](Cc4ccsc4)C(=O)N[C@@H](Cc4csc5ccccc45)C(=O)N[C@@H](Cc4c[nH]cn4)C(N)=O)(C3)NC(=O)[C@H](CC(N)=O)NC(=O)[C@H](Cc3ccccc3)NC(=O)[C@H](C)NC(=O)[C@H](C)NC(=O)[C@H]([C@@H](C)O)NC(=O)[C@H](CC(=O)O)NC1=O)NC(=O)[C@H](CC(C)(C)C)NC(=O)[C@H](CC(=O)O)NC2=O (stereo partly drawn) [I-845, Ac-PL3-Asp-Npg-B5-Asp-Thr-Ala-Ala-Phe-Asn-PyrS2-3Thi-BztA-His-NH2] | 10 (≈ 19.1 µg/mL) | 2.42 | 7 |  |  |  | 
2 | CC(=O)N1CCC[C@]12CC=CCCCC1(CCCC=CCCCCCC[C@@](C)(C(=O)N[C@@H](Cc3ccccc3)C(=O)N[C@@H](Cc3csc4ccccc34)C(=O)N[C@@H](CCC(N)=O)C(N)=O)NC(=O)[C@H](CC(N)=O)NC(=O)[C@H](Cc3ccccc3)NC(=O)[C@H](C)NC(=O)[C@H](C)NC(=O)[C@H](CCC(=O)O)NC(=O)[C@H](CC(=O)O)NC1=O)NC(=O)[C@H](CC1CCCCC1)NC(=O)[C@H](CC(=O)O)NC2=O (stereo partly drawn) [I-619, Ac-PL3-Asp-Cha-B5-Asp-Glu-Ala-Ala-Phe-Asn-S8-Phe-BztA-Gln-NH2] | 47 (≈ 89.7 µg/mL) |  |  | 2.677 | 44 |  | IC50 ([1]; read-out: FP EC50): 44 nM
3 | CCN(CC(=O)O)C[C@@H]1NC(=O)[C@H](CC(=O)O)NC(=O)C2(CCCC=CCCCOC(=O)N3CC[C@@](C(=O)N[C@@H](Cc4ccsc4)C(=O)N[C@@H](Cc4csc5ccccc45)C(=O)N[C@@H](CCC(N)=O)C(N)=O)(C3)NC(=O)[C@H](Cc3ccccc3)NC(=O)[C@H](Cc3ccccc3)NC(=O)[C@H](C)NC(=O)[C@H](C)NC1=O)CCCC=CC[C@]1(CCCN1C(C)=O)C(=O)N[C@@H](CC(=O)O)C(=O)N[C@@H](CC(C)(C)C)C(=O)N2 (stereo partly drawn) [I-971, Ac-PL3-Asp-Npg-B5-Asp-EtGA-Ala-Ala-Phe-Phe-PyrS2-3Thi-BztA-Gln-NH2] | 10 (≈ 20.1 µg/mL) |  | 1840 | 1.939 |  | 1610 | 
4 | CC[C@H](C)[C@@H]1NC(=O)[C@H](CC(=O)O)NC(=O)[C@]2(CC=CCCCC3(CCCC=CCCCCCC[C@@](C)(C(=O)N[C@@H](Cc4ccccc4)C(=O)N[C@@H](Cc4csc5ccccc45)C(=O)N[C@@H](CCC(N)=O)C(N)=O)NC(=O)[C@H](CCC(N)=O)NC(=O)[C@H](CC(C)(C)C)NC(=O)[C@H](C)NC(=O)[C@H](C)NC(=O)[C@H](CCC(=O)O)NC(=O)[C@H](CC(=O)O)NC3=O)NC1=O)CCCN2C(C)=O (stereo partly drawn) [I-727, Ac-PL3-Asp-Ile-B5-Asp-Glu-Ala-Ala-Npg-Gln-S8-Phe-BztA-Gln-NH2] |  | 2.41 |  |  | 5000 |  | Solubility (Solubility in PBS; Solubility (uM)): 26 µM (≈ 48.4 µg/mL)
5 | CC(=O)N1CCC[C@]12CC=CCCCC1(CCCC=CCCCCCC[C@@](C)(C(=O)N[C@@H](Cc3ccccc3)C(=O)N[C@@H](Cc3csc4ccccc34)C(=O)N[C@@H](Cc3c[nH]cn3)C(N)=O)NC(=O)[C@H](CCC(N)=O)NC(=O)[C@H](Cc3ccccc3)NC(=O)[C@H](C)NC(=O)[C@H](C)NC(=O)[C@H](CC(=O)O)NC(=O)[C@H](CC(=O)O)NC1=O)NC(=O)[C@H](C)NC(=O)[C@H](CC(=O)O)NC2=O (stereo partly drawn) [I-360, Ac-PL3-Asp-Ala-B5-Asp-Asp-Ala-Ala-Phe-Gln-S8-Phe-BztA-His-NH2] | 44 (≈ 80.8 µg/mL) |  |  | 2.017 |  | 146 | IC50 [1, 4]: 146 nM
6 | CC(=O)N1CCC[C@]12CC=CCCCC1(CCCC=CCCCCCC[C@@](C)(C(=O)N[C@@H](Cc3ccsc3)C(=O)N[C@@H](Cc3csc4ccccc34)C(N)=O)NC(=O)[C@H](CC(N)=O)NC(=O)[C@H](Cc3ccccc3)NC(=O)[C@H](C)NC(=O)[C@H](C)NC(=O)[C@H](CCC(=O)O)NC(=O)[C@H](CC(=O)O)NC1=O)NC(=O)[C@H](CC(C)(C)C)NC(=O)[C@H](CC(=O)O)NC2=O (stereo partly drawn) [I-718, Ac-PL3-Asp-Npg-B5-Asp-Glu-Ala-Ala-Phe-Asn-S8-3Thi-BztA-NH2] | 38 (≈ 66.9 µg/mL) |  |  | 2.765 | 82 |  | IC50 ([1]; read-out: FP EC50): 82 nM
7 | CC[C@H](C)[C@@H]1NC(=O)[C@H](CC(=O)O)NC(=O)[C@]2(CC=CCCCC3(CCCC=CCCCCCC[C@@](C)(C(=O)N[C@@H](Cc4ccccc4)C(=O)N[C@@H](Cc4csc5ccccc45)C(=O)N[C@@H](CCC(N)=O)C(N)=O)NC(=O)[C@H](CCC(N)=O)NC(=O)[C@H](Cc4ccccc4)NC(=O)[C@H](C)NC(=O)[C@H](C)NC(=O)[C@H](CCC(=O)O)NC(=O)[C@H](CC(=O)O)NC3=O)NC1=O)CCCN2C(=O)c1ccccn1 (stereo partly drawn) [I-599, Pic-PL3-Asp-Ile-B5-Asp-Glu-Ala-Ala-Phe-Gln-S8-Phe-BztA-Gln-NH2] |  | 2.42 |  |  | 138 |  | Solubility (Solubility in PBS; Solubility (uM)): 45 µM (≈ 87.6 µg/mL)
8 | CC(=O)N1CCC[C@]12CC=CCCCC1(CCCC=CCCCCCC[C@@](C)(C(=O)N[C@@H](Cc3ccccc3)C(=O)N[C@@H](Cc3csc4ccccc34)C(=O)N[C@@H](CCC(N)=O)C(N)=O)NC(=O)[C@H](CCC(N)=O)NC(=O)[C@H](Cc3cccc(C(F)(F)F)c3)NC(=O)[C@H](C)NC(=O)[C@H](C)NC(=O)[C@H](CC(=O)O)NC(=O)[C@H](CC(=O)O)NC1=O)NC(=O)[C@H](C)NC(=O)[C@H](CC(=O)O)NC2=O (stereo partly drawn) [I-379, Ac-PL3-Asp-Ala-B5-Asp-Asp-Ala-Ala-3F3MeF-Gln-S8-Phe-BztA-Gln-NH2] | 50 (≈ 94.8 µg/mL) |  |  | 2.143 |  | 1340 | 
9 | CC(=O)N1CCC[C@]12CC=CCCCC1(CCCC=CCCCCCC[C@@](C)(C(=O)N[C@@H](Cc3ccccc3)C(=O)N[C@@H](Cc3c[nH]c4ccccc34)C(=O)N[C@@H](CCC(N)=O)C(N)=O)NC(=O)[C@H](C(C)C)NC(=O)[C@H](Cc3ccc(F)c(F)c3)NC(=O)[C@H](C)NC(=O)[C@H](C)NC(=O)[C@H](CC(=O)O)NC(=O)[C@H](CC(=O)O)NC1=O)NC(=O)[C@H](C)NC(=O)[C@H](CC(=O)O)NC2=O (stereo partly drawn) [I-267, Ac-PL3-Asp-Ala-B5-Asp-Asp-Ala-Ala-34FF-Val-S8-Phe-Trp-Gln-NH2] |  | 2.05 |  |  |  |  | Solubility (Solubility in PBS; Solubility (uM)): 37 µM (≈ 67.2 µg/mL); IC50 [1, 4]: 5000 nM
10 | CC(=O)N1CCC[C@]12CC=CCCCC1(CCCC=CCCCCCC[C@@](C)(C(=O)N[C@@H](Cc3ccccc3)C(=O)N[C@@H](Cc3csc4ccccc34)C(=O)N[C@@H](CCC(N)=O)C(N)=O)NC(=O)[C@H](CC(N)=O)NC(=O)[C@H](Cc3ccccc3)NC(=O)[C@H](C)NC(=O)[C@H](C)NC(=O)[C@H](CCC(=O)O)NC(=O)[C@H](CC(=O)O)NC1=O)NC(=O)[C@H](C)NC(=O)[C@H](CC(=O)O)NC2=O (stereo partly drawn) [I-424, Ac-PL3-Asp-Ala-B5-Asp-Glu-Ala-Ala-Phe-Asn-S8-Phe-BztA-Gln-NH2] | 50 (≈ 91.4 µg/mL) |  |  | 1.968 | 170 |  | IC50 ([1]; read-out: FP EC50): 170 nM
11 | CC(=O)N1CCC[C@]12CC=CCCCC1(CCCC=CCCCCCC[C@@](C)(C(=O)N[C@@H](CC3CCCC3)C(=O)N[C@@H](Cc3csc4ccccc34)C(=O)N[C@@H](CCC(N)=O)C(N)=O)NC(=O)[C@H](C(C)C)NC(=O)[C@H](Cc3ccccc3)NC(=O)[C@H](C)NC(=O)[C@H](C)NC(=O)[C@H](CCC(=O)O)NC(=O)[C@H](CC(=O)O)NC1=O)NC(=O)[C@H](C)NC(=O)[C@H](CC(=O)O)NC2=O (stereo partly drawn) [I-393, Ac-PL3-Asp-Ala-B5-Asp-Glu-Ala-Ala-Phe-Val-S8-CypA-BztA-Gln-NH2] | 10 (≈ 18 µg/mL) |  |  |  | 1950 |  | logD (CHI Log D procedure; pH 7.4, CHI Log D): 2.64
12 | CCN(CC(=O)O)C[C@@H]1NC(=O)[C@H](CC(=O)O)NC(=O)C2(CCCC=CCCCOC(=O)N3CC[C@@](C(=O)N[C@@H](Cc4ccsc4)C(=O)N[C@@H](Cc4csc5ccccc45)C(=O)N[C@@H](CO)C(N)=O)(C3)NC(=O)[C@H](CO)NC(=O)[C@H](Cc3ccccc3)NC(=O)[C@H](C)NC(=O)[C@H](C)NC1=O)CCCC=CC[C@]1(CCCN1C(C)=O)C(=O)N[C@@H](CC(=O)O)C(=O)N[C@@H](CC(C)(C)C)C(=O)N2 (stereo partly drawn) [I-974, Ac-PL3-Asp-Npg-B5-Asp-EtGA-Ala-Ala-Phe-Ser-PyrS2-3Thi-BztA-Ser-NH2] | 10 (≈ 19.1 µg/mL) |  | 1780 | 1.857 |  | 1780 | 
13 | CC(=O)N1CCC[C@]12CC=CCCCC1(CCCC=CCCCOC(=O)N3CC[C@@](C(=O)N[C@@H](Cc4ccccc4Cl)C(=O)N[C@@H](Cc4csc5ccccc45)C(=O)N[C@H](C(N)=O)[C@@H](C)O)(C3)NC(=O)[C@H](Cc3ccccc3)NC(=O)[C@H](Cc3ccccc3)NC(=O)[C@H](C)NC(=O)[C@H](C)NC(=O)[C@H](CN(CC(=O)O)CC(F)(F)F)NC(=O)[C@H](CC(=O)O)NC1=O)NC(=O)[C@H](CC(C)(C)C)NC(=O)[C@H](CC(=O)O)NC2=O (stereo partly drawn) [I-991, Ac-PL3-Asp-Npg-B5-Asp-TfeGA-Ala-Ala-Phe-Phe-PyrS2-2C1F-BztA-Thr-NH2] | 10 (≈ 20.6 µg/mL) | 2.7 | 51 |  |  |  | 
